Assay results from patent publication US8685992B2, “Histone deacetylase inhibitors based simultaneously on trisubstituted 1H-pyrroles and aromatic and heteroaromatic spacers” (Universidad del País Vasco, priority 2009, dated 2014).

Experiments:
[1] = target: Human HDAC2 (Homo sapiens (Human), UniProt Q92769); test: HDAC2 fluorogenic peptide deacetylation assay; type: biochemical; details: human HDAC2, 50 μM substrate, 30° C., 2 h; read-out: IC50 (nM) of enzyme activity HDAC2
[2] = target: Human HDAC6 (Homo sapiens (Human), UniProt Q9UBN7); test: HDAC6 fluorogenic peptide deacetylation assay; type: biochemical; details: human HDAC6, 50 μM substrate, 30° C., 2 h; read-out: IC50 (nM) of enzyme activity HDAC6
Sequence of Human HDAC6 (Q9UBN7 whole entry): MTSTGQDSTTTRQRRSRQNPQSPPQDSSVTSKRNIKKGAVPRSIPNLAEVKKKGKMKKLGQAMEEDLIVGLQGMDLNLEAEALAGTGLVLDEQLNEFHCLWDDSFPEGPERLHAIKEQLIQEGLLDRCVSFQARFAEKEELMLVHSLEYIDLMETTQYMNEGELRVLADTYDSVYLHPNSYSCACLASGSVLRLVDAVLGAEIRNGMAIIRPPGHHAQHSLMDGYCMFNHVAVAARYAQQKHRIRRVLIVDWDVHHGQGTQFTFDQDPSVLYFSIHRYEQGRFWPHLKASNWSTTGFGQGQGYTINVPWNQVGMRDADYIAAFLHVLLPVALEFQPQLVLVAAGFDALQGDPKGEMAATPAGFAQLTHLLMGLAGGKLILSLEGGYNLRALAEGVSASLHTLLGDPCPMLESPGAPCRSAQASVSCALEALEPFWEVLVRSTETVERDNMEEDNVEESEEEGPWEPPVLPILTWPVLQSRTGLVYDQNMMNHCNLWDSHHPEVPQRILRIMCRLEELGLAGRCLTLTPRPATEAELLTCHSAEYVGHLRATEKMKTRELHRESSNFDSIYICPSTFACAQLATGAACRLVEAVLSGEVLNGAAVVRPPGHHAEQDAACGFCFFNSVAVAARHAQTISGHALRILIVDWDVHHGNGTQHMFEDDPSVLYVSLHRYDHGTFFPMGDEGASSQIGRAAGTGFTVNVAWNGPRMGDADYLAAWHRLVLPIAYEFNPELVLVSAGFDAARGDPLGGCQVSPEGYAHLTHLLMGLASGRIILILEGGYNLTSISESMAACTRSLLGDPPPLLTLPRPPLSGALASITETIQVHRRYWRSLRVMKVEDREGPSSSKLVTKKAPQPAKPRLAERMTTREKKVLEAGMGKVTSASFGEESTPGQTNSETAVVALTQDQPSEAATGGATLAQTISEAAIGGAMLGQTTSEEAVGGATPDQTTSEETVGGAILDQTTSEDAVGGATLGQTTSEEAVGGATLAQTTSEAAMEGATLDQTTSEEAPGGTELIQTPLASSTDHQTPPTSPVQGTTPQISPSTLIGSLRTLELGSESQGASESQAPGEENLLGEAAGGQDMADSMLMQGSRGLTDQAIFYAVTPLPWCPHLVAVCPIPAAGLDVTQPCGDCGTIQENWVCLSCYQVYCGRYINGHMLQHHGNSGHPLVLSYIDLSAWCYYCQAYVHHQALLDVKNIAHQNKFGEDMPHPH

[3] = target: Human HDAC8 (Homo sapiens (Human), UniProt Q9BY41); test: HDAC8 fluorogenic peptide deacetylation assay; type: biochemical; details: human HDAC8, 50 μM substrate, 30° C., 2 h; read-out: IC50 (nM) of enzyme activity HDAC8
Sequence of Human HDAC8 (Q9BY41 whole entry): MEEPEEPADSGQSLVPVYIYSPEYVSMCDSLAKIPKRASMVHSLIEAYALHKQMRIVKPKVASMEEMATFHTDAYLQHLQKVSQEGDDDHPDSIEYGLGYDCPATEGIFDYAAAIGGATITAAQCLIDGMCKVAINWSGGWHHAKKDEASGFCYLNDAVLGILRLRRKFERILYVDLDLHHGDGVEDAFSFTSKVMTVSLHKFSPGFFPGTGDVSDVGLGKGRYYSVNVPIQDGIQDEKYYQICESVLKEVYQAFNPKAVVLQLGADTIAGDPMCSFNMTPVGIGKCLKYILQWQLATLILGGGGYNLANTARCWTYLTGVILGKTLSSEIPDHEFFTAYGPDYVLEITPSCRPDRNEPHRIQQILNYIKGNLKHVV

[4] = test system: Nuclear Extract from HeLa Cells; test: HeLa Nuclear Extract HDAC assay; type: biochemical, human; details: 50 μM substrate, 30° C., 2 h, read-out: IC50 (nM) of enzyme activity HeLa
[5] = test system: BT474; test: Cancer cell growth inhibition, BT474; type: cell-based; details: Homo sapiens, BT-474; BT474, Breast Cancer, 72 h treatment
Experimental: (§1) Cell culture-based assays were used to evaluate the ability of compounds of the invention to inhibit cancer cell growth inhibition.
(§2) Cells were obtained from the American Type Culture Collection (ATCC). Cells were cultured at 37° C. with 5% CO2 in the appropriate growth medium (see table below), and harvested respectively during the logarithmic growth period and counted with hemocytometer. The cell viability was over 98% by trypan blue exclusion. Cell concentrations were adjusted between 5×10^4 and 2×10^5 cells/ml with respective medium.
(§3) Stock solutions of test compounds and positive drugs Doxorubicin (Zhejiang, Haizheng, China), Paclitaxel (Beijing, Xiehe, China), Vincristin (Shenzhen Wanle, China), 5-FU (Tianjin jinyaoanjisuan, China), Irinotecan (Jiangsu Hengrui, China) and Cisplatin Nanjing zhiyao, China) were prepared in dimethyl sulphoxide (DMSO) or PBS at 20 mM.
(§4) All treatments were performed in triplicate. 10 μl drug solution was added to each well and incubated for 72 hours. At the end of the incubation, 20 μl of the freshly prepared MTS/PMS mixture solution was added to each well and incubated for 4 hours at 37° C. in a humidified, 5% CO2 atmosphere. Absorbance was read at 490 nm using SpectraMAX Plus microplate spectrophotometer. […] In order to calculate IC50, a dose-responsive curve was fitted using nonlinear regression model with a sigmoidal dose response.

[6] = test system: MCF-7; test: Cancer cell growth inhibition, MCF-7; type: cell-based, human; details: Homo sapiens, MCF7; MCF-7, Breast Cancer, 72 h treatment
Experimental: as §1, §2, §3, §4

[7] = test system: MCF-7-218; test: Cancer cell growth inhibition, MCF-7-218; type: cell-based; details: Homo sapiens; MCF-7-218, Breast Cancer, 72 h treatment
Experimental: as §1, §2, §3, §4

[8] = test system: MCF-7-FL; test: Cancer cell growth inhibition, MCF-7-FL; type: cell-based; details: Homo sapiens, Breast Cancer, 72 h treatment
Experimental: as §1, §2, §3, §4

[9] = test system: DU145; test: Cancer cell growth inhibition, DU145; type: cell-based, human; details: Homo sapiens, DU-145; DU145, Prostate Cancer, 72 h treatment
Experimental: as §1, §2, §3, §4

[10] = test system: PC-3; test: Cancer cell growth inhibition, PC-3; type: cell-based, human; details: Homo sapiens; PC-3, Prostate Cancer, 72 h treatment
Experimental: as §1, §2, §3, §4

[11] = test system: HT-29; test: Cancer cell growth inhibition, HT-29; type: cell-based, human; details: Homo sapiens; HT-29, Colorectal Cancer, 72 h treatment
Experimental: as §1, §2, §3, §4

[12] = test system: LoVo; test: Cancer cell growth inhibition, LoVo; type: cell-based, human; details: Homo sapiens, Colorectal Cancer, 72 h treatment
Experimental: as §1, §2, §3, §4

[13] = test system: A549; test: Cancer cell growth inhibition, A549; type: cell-based, human; details: Homo sapiens; A549, Lung Cancer, 72 h treatment
Experimental: as §1, §2, §3, §4

[14] = test system: U87MG; test: Cancer cell growth inhibition, U87MG; type: cell-based, human; details: Homo sapiens, U-87 MG, Glioblastoma, 72 h treatment
Experimental: as §1, §2, §3, §4

[15] = test system: MIAPACA-2; test: Cancer cell growth inhibition, MIAPACA-2; type: cell-based, human; details: Homo sapiens, MIA PaCa-2; MIAPACA-2, Pancreatic Cancer, 72 h treatment
Experimental: as §1, §2, §3, §4

[16] = test system: Bx-PC-3; test: Cancer cell growth inhibition, Bx-PC-3; type: cell-based, human; details: Homo sapiens, BXPC-3; Bx-PC-3, Pancreatic Cancer, 72 h treatment
Experimental: as §1, §2, §3, §4

[17] = test system: PANC-1; test: Cancer cell growth inhibition, PANC-1; type: cell-based, human; details: Homo sapiens; PANC-1, Pancreatic Cancer, 72 h treatment
Experimental: as §1, §2, §3, §4

[18] = test system: SK-MEL-5; test: Cancer cell growth inhibition, SK-MEL-5; type: cell-based, human; details: Homo sapiens; SK-MEL-5, Melanoma, 72 h treatment
Experimental: as §1, §2, §3, §4

[19] = test system: BGC823; test: Cancer cell growth inhibition, BGC823; type: cell-based, human; details: Homo sapiens, BGC-823; BGC823, Gastric Cancer, 72 h treatment
Experimental: as §1, §2, §3, §4

[20] = test system: SK-OV-3; test: Cancer cell growth inhibition, SK-OV-3; type: cell-based, human; details: Homo sapiens; SK-OV-3, Ovarian Cancer, 72 h treatment
Experimental: as §1, §2, §3, §4

[21] = test system: K562; test: Cancer cell growth inhibition, K562; type: cell-based, human; details: Homo sapiens; K562, CML, 72 h treatment
Experimental: as §1
as §2, with “The cell viability was over 98% by trypan blue exclusion.” left out
as §3, §4

[22] = test system: KB; test: Cancer cell growth inhibition, KB; type: cell-based, human; details: Homo sapiens, Oral Cancer, 72 h treatment
Experimental: as §1, §2, §3, §4

[23] = target: Human HDAC4 (Homo sapiens (Human), UniProt P56524); test: HDAC4 fluorogenic peptide deacetylation assay; type: biochemical; details: human HDAC4, 50 μM substrate, 30° C., 2 h; read-out: IC50 (nM) of enzyme activity HDAC4
Sequence of Human HDAC4 (P56524 627-1084 limits assumed): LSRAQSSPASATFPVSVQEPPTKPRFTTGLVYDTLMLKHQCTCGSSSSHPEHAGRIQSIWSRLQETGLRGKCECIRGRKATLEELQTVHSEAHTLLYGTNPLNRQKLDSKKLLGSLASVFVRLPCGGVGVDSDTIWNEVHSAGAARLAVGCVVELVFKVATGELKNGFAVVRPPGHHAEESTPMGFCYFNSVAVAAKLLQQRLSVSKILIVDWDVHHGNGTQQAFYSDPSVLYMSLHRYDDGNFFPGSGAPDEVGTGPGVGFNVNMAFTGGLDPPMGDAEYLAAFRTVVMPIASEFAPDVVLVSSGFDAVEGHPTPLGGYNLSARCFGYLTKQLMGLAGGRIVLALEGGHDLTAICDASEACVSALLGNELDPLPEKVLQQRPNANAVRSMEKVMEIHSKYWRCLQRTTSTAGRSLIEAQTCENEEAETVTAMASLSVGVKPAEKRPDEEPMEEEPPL

[24] = target: Human HDAC9 (Homo sapiens (Human), UniProt Q9UKV0); test: HDAC9 fluorogenic peptide deacetylation assay; type: biochemical; details: human HDAC9, 50 μM substrate, 30° C., 2 h; read-out: IC50 (nM) of enzyme activity HDAC9
Sequence of Human HDAC9 (Q9UKV0 other isoform, or with tags, fused parts or gaps): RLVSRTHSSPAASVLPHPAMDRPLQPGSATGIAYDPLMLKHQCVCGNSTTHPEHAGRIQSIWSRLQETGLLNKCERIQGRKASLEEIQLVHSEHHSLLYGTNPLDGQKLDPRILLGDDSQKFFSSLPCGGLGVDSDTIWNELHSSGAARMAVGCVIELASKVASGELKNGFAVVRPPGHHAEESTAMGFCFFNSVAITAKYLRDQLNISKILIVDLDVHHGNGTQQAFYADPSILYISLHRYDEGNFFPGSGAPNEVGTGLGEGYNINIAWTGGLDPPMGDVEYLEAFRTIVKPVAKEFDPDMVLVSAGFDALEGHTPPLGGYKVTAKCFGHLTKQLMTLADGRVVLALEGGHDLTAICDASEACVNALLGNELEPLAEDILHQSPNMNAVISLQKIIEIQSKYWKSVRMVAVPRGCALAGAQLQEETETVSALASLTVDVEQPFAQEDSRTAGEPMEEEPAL

[25] = target: Human HDAC10 (Homo sapiens (Human), UniProt Q969S8); test: HDAC10 fluorogenic peptide deacetylation assay; type: biochemical; details: human HDAC10, 50 μM substrate, 30° C., 2 h; read-out: IC50 (nM) of enzyme activity HDAC10
Sequence of Human HDAC10 (Q969S8 1-631): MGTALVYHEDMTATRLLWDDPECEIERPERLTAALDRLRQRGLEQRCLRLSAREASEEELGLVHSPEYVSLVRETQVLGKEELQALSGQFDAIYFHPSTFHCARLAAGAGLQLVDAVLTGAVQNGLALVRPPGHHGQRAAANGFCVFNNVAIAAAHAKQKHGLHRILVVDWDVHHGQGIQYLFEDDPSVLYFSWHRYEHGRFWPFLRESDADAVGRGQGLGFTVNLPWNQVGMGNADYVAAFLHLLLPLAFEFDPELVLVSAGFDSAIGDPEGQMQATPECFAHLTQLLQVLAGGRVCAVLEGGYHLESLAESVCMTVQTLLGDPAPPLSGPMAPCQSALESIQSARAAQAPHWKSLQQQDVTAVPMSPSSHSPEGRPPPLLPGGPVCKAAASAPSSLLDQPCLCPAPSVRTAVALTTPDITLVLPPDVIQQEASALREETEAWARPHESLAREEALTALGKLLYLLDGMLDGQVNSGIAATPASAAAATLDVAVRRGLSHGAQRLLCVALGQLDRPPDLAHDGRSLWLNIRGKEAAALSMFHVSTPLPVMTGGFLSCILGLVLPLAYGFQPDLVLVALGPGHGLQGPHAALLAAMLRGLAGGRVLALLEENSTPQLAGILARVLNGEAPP

[26] = target: Human HDAC11 (Homo sapiens (Human), UniProt Q96DB2); test: HDAC11 fluorogenic peptide deacetylation assay; type: biochemical; details: human HDAC11, 50 μM substrate, 30° C., 2 h; read-out: IC50 (nM) of enzyme activity HDAC11
Sequence of Human HDAC11 (Q96DB2 whole entry): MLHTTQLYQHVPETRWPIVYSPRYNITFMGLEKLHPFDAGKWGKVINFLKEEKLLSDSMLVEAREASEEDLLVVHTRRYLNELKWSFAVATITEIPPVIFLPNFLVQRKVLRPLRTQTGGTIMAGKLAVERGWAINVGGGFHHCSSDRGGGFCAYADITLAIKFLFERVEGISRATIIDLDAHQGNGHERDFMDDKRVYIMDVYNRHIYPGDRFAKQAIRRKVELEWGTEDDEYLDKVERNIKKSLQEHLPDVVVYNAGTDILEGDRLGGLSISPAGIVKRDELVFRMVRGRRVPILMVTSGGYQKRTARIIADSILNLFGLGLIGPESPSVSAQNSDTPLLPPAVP

Sequence of Human HDAC2 (Q92769 whole entry): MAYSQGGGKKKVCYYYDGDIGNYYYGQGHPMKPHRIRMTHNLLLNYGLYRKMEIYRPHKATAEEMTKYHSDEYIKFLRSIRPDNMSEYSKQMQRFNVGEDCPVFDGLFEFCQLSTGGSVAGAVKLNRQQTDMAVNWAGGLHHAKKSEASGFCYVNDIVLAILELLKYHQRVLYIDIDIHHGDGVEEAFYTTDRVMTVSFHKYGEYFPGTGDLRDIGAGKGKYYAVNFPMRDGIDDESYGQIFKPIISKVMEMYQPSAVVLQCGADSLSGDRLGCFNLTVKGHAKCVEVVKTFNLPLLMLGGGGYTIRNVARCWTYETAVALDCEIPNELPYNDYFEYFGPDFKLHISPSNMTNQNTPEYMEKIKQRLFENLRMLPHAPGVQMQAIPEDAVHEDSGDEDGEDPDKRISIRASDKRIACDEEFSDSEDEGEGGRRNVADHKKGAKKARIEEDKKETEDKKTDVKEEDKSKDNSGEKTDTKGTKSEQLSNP

| IC50 [1] [nM] | IC50 [2] [nM] | IC50 [3] [nM] | IC50 [4] [nM] | IC50 [5] [nM] | IC50 [6] [nM] | IC50 [9] [nM] | IC50 [10] [nM] | IC50 [11] [µM] | IC50 [12] [nM] | IC50 [13] [µM] | IC50 [14] [µM] | IC50 [15] [nM] | IC50 [16] [µM] | IC50 [17] [µM] | IC50 [18] [nM] | IC50 [19] [µM] | IC50 [20] [nM] | IC50 [21] [nM] | IC50 [22] [nM] | Structure (SMILES) | also measured |
| --- | --- | --- | --- | --- | --- | --- | --- | --- | --- | --- | --- | --- | --- | --- | --- | --- | --- | --- | --- | --- | --- |
| 909 | 6.8 | 227 | 26 | 3630 | 4490 | 4510 | 3000 | 10.7 | 1910 | 11.4 | 10.8 | 2810 | 7.73 | 10.7 | 3340 | 9.68 | 4170 | 1040 | 2960 | O=C(NO)c1ccc(CNC(=O)c2[nH]c(-c3ccoc3)cc2-c2ccc(O)cc2)cc1 [Example 9, 5-(3-furyl)-N-{4-[(hydroxyamino)carbonyl]benzyl}-3-(4-hydroxyphenyl)-1H-pyrrole-2-carboxamide] | IC50 [7]: 12.8 µM; IC50 [8]: 7.72 µM |
| 392 | 2 | 174 | 22 | 12900 | 2760 | 1860 | 1310 | 25.9 | 3850 | 3.43 | 8.96 | 7520 | 8.28 | 11.5 | 3790 | 7.79 | 8430 | 1370 | 3420 | COc1ccc(-c2cc(-c3ccsc3)c(C(=O)NCc3ccc(C(=O)NO)cc3)[nH]2)cc1 [Example 28, N-{4-[(hydroxyamino)carbonyl]benzyl}-5-(4-methoxyphenyl)-3-(3-thienyl)-1H-pyrrole-2-carboxamide] | IC50 [23]: 2430 nM; IC50 [24]: 478 nM; IC50 [25]: 723 nM; IC50 [26]: 718 nM |
| 318 | 0.44 | 64.1 | 6.7 | 1630 | 10100 | 1520 | 2400 | 5.78 | 498 | 11 | 9.35 | 428 | 6.83 | 9.84 | 851 | 13.7 | 1630 | 1300 | 702 | O=C(NO)c1ccc(CNC(=O)c2[nH]c(-c3ccc(O)cc3)cc2-c2ccsc2)cc1 [Example 14, N-{4-[(hydroxyamino)carbonyl]benzyl}-5-(4-hydroxyphenyl)-3-(3-thienyl)-1H-pyrrole-2-carboxamide] | IC50 [23]: 956 nM; IC50 [24]: 277 nM; IC50 [25]: 316 nM; IC50 [26]: 319 nM; IC50 [7]: 37.6 µM; IC50 [8]: 6.64 µM |
| 157 | 1.6 | 148 | 3.9 | 119 | 376 | 338 | 420 | 1.01 | 430 | 1.02 | 1.39 | 881 | 0.775 | 0.965 | 256 | 0.676 | 1670 |  | 315 | COc1ccc(-c2cc(-c3ccoc3)c(C(=O)NCc3ccc(C(=O)NO)cc3)[nH]2)cc1 [Example 27, 3-(3-furyl)-N-{4-[(hydroxyamino)carbonyl]benzyl}-5-(4-methoxyphenyl)-1H-pyrrole-2-carboxamide] | IC50 [23]: 1080 nM; IC50 [24]: 163 nM; IC50 [26]: 341 nM |
| 144 |  | 74.8 | 3.4 | 442 | 2090 | 460 | 281 | 2.29 | 150 | 2.46 | 6.56 | 270 | 2.25 | 6.45 | 292 | 5.14 | 651 | 739 | 184 | O=C(NO)c1ccc(CNC(=O)c2[nH]c(-c3ccc(O)cc3)cc2-c2ccoc2)cc1 [Example 15, 3-(3-furyl)-N-{4-[(hydroxyamino)carbonyl]benzyl}-5-(4-hydroxyphenyl)-1H-pyrrole-2-carboxamide] | IC50 [23]: 338 nM; IC50 [24]: 59 nM; IC50 [25]: 35 nM; IC50 [26]: 72 nM; IC50 [7]: 26.5 µM; IC50 [8]: 3.31 µM |
